Where a name gives a salt, the structure may show the parent alone.
Columns and labels:
[1] = Set of methods and tests of the activity of the products (vasodilatatory, spasmolytic, antihistaminic, cholinolytic, sedative, depressant, neurotoxic)
Excerpt: The set of methods and tests effected enabled us to appreciate the activity of the products according to the invention. It clearly follows therefrom that the products wherein: […]

cerebral circulation = assay: Cerebral circulation: PO2 of the venous cerebral blood (sinus sagittalis) in cats anaesthetized with Nembutal; assay type: in vivo; settings: intravenous perfusion
Description: In the course of a series of experiments on cats anaesthetized with Nembutal, the cynetics of PO2 of the venous cerebral blood were measured (from the sinus sagittalis) during an intravenous perfusion of this product.

mice [2] = assay: Toxicity (mice), I.G. (Table III); assay type: in vivo
Excerpt: (§1) The products were used in the form of the trihydrochloride, except the product under the letter "b" which was used in the form of the dihydrochloride.

[3] = Toxicity (mice), I.G. (Table III); assay type: in vivo; settings: mouse, in vivo, po
Excerpt: as §1

mice [4] = assay: Acute toxicity on mice, orally and intraperitoneally (Table I); assay type: in vivo; settings: for LD0: suspended in gum syrup or labrafil
Description: (§2) Tests were performed on mice, orally (P.O.) and intraperitoneally (I.P.), the active compounds being suspended in gum syrup or labrafil.

[5] = as above; assay type: in vivo; settings: mouse, in vivo, suspended in gum syrup or labrafil
Description: as §2

[6] = Acute toxicity, oral, albino rats (Table II); assay type: in vivo; settings: rat, in vivo, aqueous solution
Description: (§3) Tests were performed on mice and albino rats, the active compound being administered orally in the form of an aqueous solution.

albino rats = assay: Acute toxicity, oral, albino rats (Table II); assay type: in vivo; settings: aqueous solution
Description: as §3

mice [7] = assay: Acute toxicity, oral, mice (Table II); assay type: in vivo; settings: aqueous solution
Description: as §3

[8] = Acute toxicity, oral, mice (Table II); assay type: in vivo; settings: mouse, in vivo, aqueous solution
Description: as §3

Row | Structure (SMILES) | antihistaminic activity [1] | depressant properties [1] | neurotoxic properties [1] | spasmolytic activity [1] | vasodilatatory activity [1] | LD0 (mice [2]; mouse, in vivo) [mg/kg] | LD50 [3] [mg/kg] | further results
1 | Clc1ccc(C(c2ccccn2)N2CCN(CC=Cc3ccccc3)CC2)cc1 (stereo not drawn) [1-(2'-pyridyl-4"-chlorophenyl)-methyl-4-cinnamyl piperazine] | well-defined | do not show | do not show | well-defined | well-defined | 400 | 1180 | activity with respect to cerebral circulation (cerebral circulation): important activity
2 | O=C(C=Cc1ccccc1)N1CCN(C(c2ccccc2)C2CC2)CC1 (stereo not drawn) [C = O, 1-(cyclopropylphenyl)-methyl-4-cinnamoyl piperazine] | – | – | – | – | – | – | – | LD0 (mice [4]; I.P.): > 400 mg/kg; LD0 (mice [4]; P.O.): > 1000 mg/kg; toxicity (mice [4]; in words): very low toxicity; LD50 ([5]; ip, I.P.): 1480 mg/kg; LD50 ([5]; po, P.O.): > 4000 mg/kg
3 | Clc1ccc(C(c2ccccn2)N2CCN(CC=Cc3ccccc3)CC2)c(Cl)c1 (stereo not drawn) [1-(2'-pyridyl-2",4"-dichlorophenyl)-methyl-4-cinnamyl piperazine trihydrochloride] | well-defined | do not show | do not show | well-defined | well-defined | 400 | 600 | –
4 | C(=Cc1ccccc1)CN1CCN(C(c2ccccc2)c2ccccn2)CC1 (stereo not drawn) [1-(2'-pyridylphenyl)-methyl-4-cinnamyl piperazine] | – | – | – | – | – | – | – | LD50 [6]: 1200 mg/kg; LD0 (albino rats): 200 mg/kg; LD0 (mice [7]): 175 mg/kg; LD50 [8]: 295 mg/kg
5 | Fc1ccc(C(c2ccccn2)N2CCN(CC=Cc3ccccc3)CC2)cc1 (stereo not drawn) [1(2'-pyridyl-4"-fluorophenyl)-methyl-4-cinnamyl piperazine] | well-defined | do not show | do not show | well-defined | well-defined | 300 | 400 | –
6 | CC(c1ccc(Cl)cc1)(c1ccccn1)N1CCN(CC=Cc2ccccc2)CC1 (stereo not drawn) [1-(2'-pyridyl-4"-chlorophenylmethyl)-methyl-4-cinnamyl piperazine] | – | – | – | – | – | – | – | sedative activity [1]: presents a sedative activity; LD0 (mice [2]; mice, I.G.): 400 mg/kg; LD50 ([3]; mice, I.G.): 500 mg/kg
7 | C(=Cc1ccccc1)CN1CCN(C(c2ccccc2)C2CC2)CC1 (stereo not drawn) [--CH2 --, 1-(cyclopropylphenyl)-methyl-4-cinnamyl piperazine] | – | – | – | – | – | – | – | LD0 (mice [4]; P.O.): ~300 mg/kg; LD50 ([5]; po, P.O.): 570 mg/kg
